In this experiment the target is T1, PrpN (Bacillus anthracis, UniProt A0A6L7HCQ6).
T1 construct: gene GBAA_0570
T1 sequence (A0A6L7HCQ6 1-234): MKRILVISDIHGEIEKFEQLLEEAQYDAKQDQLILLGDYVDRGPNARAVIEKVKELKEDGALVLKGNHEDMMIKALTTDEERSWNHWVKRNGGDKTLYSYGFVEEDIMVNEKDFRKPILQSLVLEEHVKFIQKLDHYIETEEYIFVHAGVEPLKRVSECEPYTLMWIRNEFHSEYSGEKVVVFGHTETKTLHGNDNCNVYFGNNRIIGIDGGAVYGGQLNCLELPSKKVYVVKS

As to `O=[N+]([O-])c1ccc(OP(=O)(O)O)cc1` [p-nitrophenyl phosphate], the “pNPP hydrolysis, absorbance at 405 nm” value was “determined spectrophotometrically using para-nitrophenyl phosphate-pNPP (Sigma-Aldrich) as substrate”.

The values above are taken from article PMC9371265 (PLoS Pathogens, 2022).
